# Measurements: US20130310625A1, “VELIPARIB IN COMBINATION WITH WHOLE BRAIN RADIATION THERAPY FOR THE TREATMENT OF BRAIN METASTASES” (AbbVie Inc., priority 2012, published 2013)
# “Also recorded” adds a separate entry of the source.
# How the values were obtained:
# brain metastases = details: radio-sensitizer added to WBRT, randomized controlled studies; cited from earlier work
# [1] = Phase 1 pharmacokinetics of veliparib administered concurrently with WBRT in patients with brain metastases; format: in vivo, human
# Procedure: (§1) This example is a Phase 1, multicenter, dose-escalation study evaluating the safety, tolerability and pharmacokinetics of veliparib administered concurrently with conventional WBRT in subjects with solid primary tumors metastatic to the brain.
# (§2) Patients received WBRT delivered in 2.5 Gy fractions once a day (QD) for a total of 15 fractions or WBRT delivered at 3.0 Gy fractions QD for a total of 10 fractions.
# (§3) Veliparib dose-escalation began at 10 mg and increased to 20, 30, 50, 80, 100, 150, 200, and 300 mg twice a day (BID) through out the entire course of WBRT (Table 2); the final WBRT fraction was followed by 1 extra day of veliparib.
# To determine PK of veliparib, intensive PK sampling was performed on Day 1 of the WBRT schedules (15 and 10 day) at the following time points: 0, 30, 1, 2, 6 and 24 hours. PK as was also performed on Day 6 for both WBRT schedules at the following time points: 0, 30 min, 1, 2, and 6 For the 15 Day schedule sampling was performed on Day 15 at 0, 30 min, 1, 2 and 6 hours. For the 10 day schedule only a 0 hour sample was collected. Post treatment samples were collected 24-72 hours after the last dose of veliparib for both WBRT schedules.
# [2] = Phase 1 safety and tolerability of veliparib with WBRT (AEs by NCI CTCAE v3.0, DLTs); format: in vivo, human
# Procedure: as §1, §2, §3
# AEs were assessed by NCI CTCAE v3.0.
# [3] = preclinical study; cited from earlier work
# [4] = nonhuman primate model (Muscal et al. 2010); cited from earlier work
# [5] = N = 66, possibly or probably related to veliparib
compound,measurement,setting,value
O=C(O)c1nn(Cc2ccc(Cl)cc2Cl)c2ccccc12 [lonidamine],benefit in local brain tumor control or overall survival,brain metastases,failing to benefit
O=c1[nH]c(=O)n([C@H]2C[C@H](O)[C@@H](CO)O2)cc1Br [bromodeoxyuridine],benefit in local brain tumor control or overall survival,brain metastases,failing to benefit
Cc1ncc([N+](=O)[O-])n1CCO [metronidazole],benefit in local brain tumor control or overall survival,brain metastases,failing to benefit
"C[C@]1(c2nc3c(C(N)=O)cccc3[nH]2)CCCN1 [Veliparib, 2-[(2R)-2-methylpyrrolidin-2-yl]-1H-benzimidazole-4-carboxamide]",Increase in veliparib exposure (Cmax and AUC) with increase in veliparib dose,[1]; 10 to 150 mg BID dose range,approximately dose-proportional
same,veliparib accumulation following BID dosing,"[1]; Cmax and AUC on Day 1, Day 6 and Day 15",minimal
same,effect of food on veliparib oral bioavailability,[1]; exposure Day 6 (fasting) vs Day 15 (non-fasting),no significant effect of food
same,Tmax,"[1]; human, plasma, oral veliparib BID with WBRT, patients",1 to 2 h
same,oral clearance,"[1]; mean±SD, n=45, 10 to 150 mg BID dose range",21.6 ± 14.2 L/h
same,DLT,"[2]; 150 mg veliparib BID, one patient each",grade 3 hypokalemia; also recorded: grade 3 hyponatraemia
same,dose limiting toxicities (DLTs),"[2]; 10, 20, 30, 50, 80, 100, 200 and 300 mg dose levels",No dose limiting toxicities (DLTs) were observed
same,"Any Event, Any Grade, treatment-emergent AEs possibly or probably related to veliparib",[2]; N = 66,37 (56) n (%)
same,"Any Event, Grade 3/4 AEs possibly or probably related to veliparib",[2]; N = 66,10 (15) n (%)
same,"Decreased Appetite, Any Grade",[2]; [5],8 (12) n (%)
same,"Fatigue, Any Grade",[2]; [5],22 (33.3) n (%)
same,"Fatigue, Grade 3/4",[2]; [5],3 (5) n (%)
same,"Nausea, Any Grade",[2]; [5],13 (19.7) n (%)
same,"Nausea, Grade 3/4",[2]; [5],1 (2) n (%)
same,"Vomiting, Any Grade",[2]; [5],8 (12) n (%)
same,patients with AEs leading to study drug discontinuation,[2]; all causes,8 (12%) patients
same,patients with AEs leading to study drug discontinuation possibly or probably related to veliparib,[2]; in vivo,2 (3%) patients
same,blood-brain barrier crossing and accumulation in brain tumor tissue,[3],shown to cross the blood-brain barrier and accumulate in brain tumor tissue
same,level in CSF,[4],measured in CSF in a range that has been shown to inhibitor PARP activity in vivo in humans
CC(=O)[O-].CC(=O)[O-].CCc1c(CC)c2cc3nc(cnc4cc(OCCOCCOCCOC)c(OCCOCCOCCOC)cc4ncc4nc(cc1[n-]2)C(CCCO)=C4C)C(C)=C3CCCO.O.[Gd+3] [motexafin gadolinium],benefit in local brain tumor control or overall survival,brain metastases,failing to benefit
Cc1cc(C)cc(NC(=O)Cc2ccc(OC(C)(C)C(=O)O)cc2)c1 [efaproxiral],benefit in local brain tumor control or overall survival,brain metastases,failing to benefit
COCC(O)Cn1ccnc1[N+](=O)[O-] (stereo not shown) [misonidazole],benefit in local brain tumor control or overall survival,brain metastases,failing to benefit
